Measurements as given in ChEMBL document CHEMBL5042472, “Design, Synthesis, and Biological Evaluation of a Novel Photocaged PI3K Inhibitor toward Precise Cancer Treatment” (J Med Chem, 2021).
Activity calls are given as the source filed them. No cut-off for these calls is given here.

What was measured:
HCT-116 [1] = test: Inhibition of colony formation in human HCT-116 cells irradiated with 365 nm of UV light for 5 min at 100 nM incubated for 24 hrs by crystal violet staining based assay; format: functional, cell-based
BGC-823 = test: Antiproliferative activity against human BGC-823 cells assessed as reduction in cell viability incubated in dark for 96 hrs by MTT assay; format: functional, cell-based; conditions: BGC-823, 96 h
HCT-116 [2] = test: Antiproliferative activity against human HCT-116 cells assessed as reduction in cell viability irradiated with 365 nm of UV for 5 mins and incubated in dark for 96 hrs by MTT assay; format: functional, cell-based; conditions: HCT-116, light or radiation study
[3] = Stability in rat plasma assessed as half life at 1 uM measured upto 120 min by LC-MS/MS analysis; format: ADME, cell-free
[4] = biological target: Phosphatidylinositol 4,5-bisphosphate 3-kinase catalytic subunit beta isoform (Homo sapiens, UniProt P42338); test: Inhibition of PI3K beta (unknown origin) using PIP2 as substrate incubated in dark at room temperature for 1 hr in presence of ATP by ADP-Glo luminescent assay
HGC-27 [5] = test: Inhibition of PI3K/AKT signalling pathway in human HGC-27 cells assessed as downregulation of SRP6 phosphorylation at 100 nM irradiated with 365 nm UV light for 5 mins and incubated for 24 hrs by Western blot; format: cell-based
HCT-116 [6] = test: Anticancer activity against fluorescent labeled human HCT-116 cells xenografted in yolk of zebra embryo assessed as reduction in tumor size by measuring fluorescence density at 31.3 nM irradiated with 365 nm of UV light incubated for 48 hrs by fluorescence microscopic analysis; format: functional, cell-based
Homo sapiens = species on record: Homo sapiens; test: Anticancer activity against KOES-007 patient derived stomach cancer organoid assessed as inhibition of cell growth irradiated with 365 nm of UV light for 2 mins and incubated for 120 hrs; format: functional, tissue-based
[7] = biological target: Phosphatidylinositol 4,5-bisphosphate 3-kinase catalytic subunit alpha isoform (Homo sapiens, UniProt P42336); test: Inhibition of PI3K alpha (unknown origin) using PIP2 as substrate incubated in dark at room temperature for 1 hr in presence of ATP by ADP-Glo luminescent assay
HGC-27 [8] = test: Inhibition of PI3K/AKT signalling pathway in human HGC-27 cells assessed as downregulation of AKT phosphorylation at […] residue at 100 nM incubated for 24 hrs under dark condition by Western blot; format: cell-based
HGC-27 [9] = test: Antiproliferative activity against human HGC-27 cells assessed as reduction in cell viability irradiated with 365 nm of UV for 5 mins and incubated in dark for 96 hrs by MTT assay; format: functional, cell-based; conditions: HGC-27, light or radiation study
[10] = Stability in dog liver microsomes assessed as half life at 1 uM in presence of NADPH measured upto 120 min by LC-MS/MS analysis; format: ADME, Canis lupus familiaris, Microsome
MG-63 [11] = test: Antiproliferative activity against human MG-63 cells assessed as reduction in cell viability incubated in dark for 96 hrs by MTT assay; format: functional, cell-based; conditions: MG-63, 96 h
[12] = Stability in dog plasma assessed as half life at 1 uM measured upto 120 min by LC-MS/MS analysis; format: ADME, cell-free, Canis lupus familiaris
HGC-27 [13] = test: Inhibition of PI3K/AKT signalling pathway in human HGC-27 cells assessed as downregulation of AKT phosphorylation at Ser473 residue at 100 nM irradiated with 365 nm UV light for 5 mins and incubated for 24 hrs by Western blot; format: cell-based
[14] = Retention time of the compound by HPLC analysis; format: physicochemical
HCT-116 [15] = test: Antiproliferative activity against human HCT-116 cells assessed as reduction in cell viability incubated in dark for 96 hrs by MTT assay; format: functional, cell-based; conditions: HCT-116, 96 h
MG-63 [16] = test: Antiproliferative activity against human MG-63 cells assessed as reduction in cell viability irradiated with 365 nm of UV for 5 mins and incubated in dark for 96 hrs by MTT assay; format: functional, cell-based; conditions: MG-63, light or radiation study
[17] = Stability of the compound in dark condition at room temperature after 6 month; format: physicochemical; conditions: 4380 h; time 6 months
[18] = Apparent permeability across basolateral to apical side in human Caco-2 cells at 10 uM incubated for 2 hrs by LC-MS/MS analysis; format: ADME, cell-based
HGC-27 [19] = test: Induction of cell cycle arrest in human HGC-27 cells assessed as accumulation at G0/G1 phase at 100 nM incubated for 24 hrs by flow cytometry; format: functional, cell-based
[20] = biological target: T1, Phosphatidylinositol 4,5-bisphosphate 3-kinase catalytic subunit delta isoform (Homo sapiens, UniProt O00329); test: Inhibition of PI3K delta (unknown origin) using PIP2 as substrate incubated in dark at room temperature for 1 hr in presence of ATP by ADP-Glo luminescent assay
T1 sequence (O00329 whole entry): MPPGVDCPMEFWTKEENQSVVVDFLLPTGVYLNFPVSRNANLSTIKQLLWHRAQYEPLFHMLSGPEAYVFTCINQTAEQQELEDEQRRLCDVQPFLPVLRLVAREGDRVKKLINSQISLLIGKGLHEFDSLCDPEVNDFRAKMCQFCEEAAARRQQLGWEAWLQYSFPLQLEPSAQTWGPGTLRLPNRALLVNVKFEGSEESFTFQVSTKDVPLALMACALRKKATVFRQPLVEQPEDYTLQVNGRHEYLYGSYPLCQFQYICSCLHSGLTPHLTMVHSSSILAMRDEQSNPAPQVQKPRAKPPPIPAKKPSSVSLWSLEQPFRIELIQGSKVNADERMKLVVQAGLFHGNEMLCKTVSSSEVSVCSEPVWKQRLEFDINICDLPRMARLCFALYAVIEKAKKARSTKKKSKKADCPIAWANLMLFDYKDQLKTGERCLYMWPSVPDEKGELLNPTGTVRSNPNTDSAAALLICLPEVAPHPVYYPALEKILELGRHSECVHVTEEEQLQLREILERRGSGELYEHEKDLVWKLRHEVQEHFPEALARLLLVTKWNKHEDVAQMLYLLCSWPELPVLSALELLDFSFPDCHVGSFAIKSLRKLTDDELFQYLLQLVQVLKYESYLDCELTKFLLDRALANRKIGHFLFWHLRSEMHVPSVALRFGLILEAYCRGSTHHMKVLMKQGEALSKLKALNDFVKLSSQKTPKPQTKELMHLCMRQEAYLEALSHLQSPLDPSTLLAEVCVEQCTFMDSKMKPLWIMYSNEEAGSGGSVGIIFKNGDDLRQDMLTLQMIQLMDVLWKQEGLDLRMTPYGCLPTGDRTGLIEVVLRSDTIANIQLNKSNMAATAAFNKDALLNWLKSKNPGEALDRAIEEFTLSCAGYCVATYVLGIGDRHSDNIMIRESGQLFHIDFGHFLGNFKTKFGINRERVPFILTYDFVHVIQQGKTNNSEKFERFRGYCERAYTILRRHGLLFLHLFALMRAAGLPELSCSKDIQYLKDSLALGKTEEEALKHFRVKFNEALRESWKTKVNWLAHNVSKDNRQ

HGC-27 [21] = test: Induction of cell cycle arrest in human HGC-27 cells assessed as accumulation at G0/G1 phase at 100 nM irradiated with 365 nm UV light for 5 mins and incubated for 24 hrs by flow cytometry; format: functional, cell-based
HCT-116 [22] = test: Induction of cell cycle arrest in human HCT-116 cells assessed as accumulation at G0/G1 phase at 100 nM irradiated with 365 nm UV light for 5 mins incubated for 24 hrs by flow cytometry; format: functional, cell-based
HCT-116 [23] = test: Inhibition of PI3K/AKT signalling pathway in human HCT-116 cells assessed as downregulation of AKT phosphorylation at Ser473 residue at 100 nM incubated for 24 hrs under dark condition by Western blot; format: cell-based
AGS = test: Antiproliferative activity against human AGS cells assessed as reduction in cell viability incubated in dark for 96 hrs by MTT assay; format: functional, cell-based

Chain of Phosphatidylinositol 4,5-bisphosphate 3-kinase catalytic subunit alpha isoform (P42336 whole entry, canonical isoform): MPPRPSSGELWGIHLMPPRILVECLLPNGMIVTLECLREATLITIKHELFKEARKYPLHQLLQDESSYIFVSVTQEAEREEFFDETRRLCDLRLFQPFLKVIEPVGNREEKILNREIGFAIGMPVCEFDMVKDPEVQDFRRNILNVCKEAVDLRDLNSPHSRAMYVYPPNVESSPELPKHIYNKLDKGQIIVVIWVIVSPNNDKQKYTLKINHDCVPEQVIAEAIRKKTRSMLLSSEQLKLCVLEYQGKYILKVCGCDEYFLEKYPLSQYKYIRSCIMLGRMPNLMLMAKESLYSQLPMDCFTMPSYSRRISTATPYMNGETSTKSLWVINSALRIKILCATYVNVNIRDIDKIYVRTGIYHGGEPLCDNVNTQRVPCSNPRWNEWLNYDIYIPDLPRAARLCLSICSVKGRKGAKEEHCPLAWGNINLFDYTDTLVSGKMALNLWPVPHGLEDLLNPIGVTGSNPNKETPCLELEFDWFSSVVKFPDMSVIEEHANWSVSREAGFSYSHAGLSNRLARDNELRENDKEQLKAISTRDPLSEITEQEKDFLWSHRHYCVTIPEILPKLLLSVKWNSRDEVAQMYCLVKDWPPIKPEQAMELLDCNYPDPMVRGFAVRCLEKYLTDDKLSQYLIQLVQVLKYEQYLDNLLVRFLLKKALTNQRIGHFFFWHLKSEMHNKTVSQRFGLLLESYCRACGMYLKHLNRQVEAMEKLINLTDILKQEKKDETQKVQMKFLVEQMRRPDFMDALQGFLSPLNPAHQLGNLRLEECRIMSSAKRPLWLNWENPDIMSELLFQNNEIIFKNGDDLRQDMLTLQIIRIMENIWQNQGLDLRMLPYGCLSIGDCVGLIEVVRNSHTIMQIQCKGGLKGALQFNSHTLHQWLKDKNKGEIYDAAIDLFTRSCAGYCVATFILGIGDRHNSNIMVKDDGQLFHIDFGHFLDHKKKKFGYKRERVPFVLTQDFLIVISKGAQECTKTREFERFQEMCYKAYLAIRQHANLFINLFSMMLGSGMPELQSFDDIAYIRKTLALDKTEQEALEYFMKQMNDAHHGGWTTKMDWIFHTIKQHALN
Chain of Phosphatidylinositol 4,5-bisphosphate 3-kinase catalytic subunit beta isoform (P42338 whole entry, canonical isoform): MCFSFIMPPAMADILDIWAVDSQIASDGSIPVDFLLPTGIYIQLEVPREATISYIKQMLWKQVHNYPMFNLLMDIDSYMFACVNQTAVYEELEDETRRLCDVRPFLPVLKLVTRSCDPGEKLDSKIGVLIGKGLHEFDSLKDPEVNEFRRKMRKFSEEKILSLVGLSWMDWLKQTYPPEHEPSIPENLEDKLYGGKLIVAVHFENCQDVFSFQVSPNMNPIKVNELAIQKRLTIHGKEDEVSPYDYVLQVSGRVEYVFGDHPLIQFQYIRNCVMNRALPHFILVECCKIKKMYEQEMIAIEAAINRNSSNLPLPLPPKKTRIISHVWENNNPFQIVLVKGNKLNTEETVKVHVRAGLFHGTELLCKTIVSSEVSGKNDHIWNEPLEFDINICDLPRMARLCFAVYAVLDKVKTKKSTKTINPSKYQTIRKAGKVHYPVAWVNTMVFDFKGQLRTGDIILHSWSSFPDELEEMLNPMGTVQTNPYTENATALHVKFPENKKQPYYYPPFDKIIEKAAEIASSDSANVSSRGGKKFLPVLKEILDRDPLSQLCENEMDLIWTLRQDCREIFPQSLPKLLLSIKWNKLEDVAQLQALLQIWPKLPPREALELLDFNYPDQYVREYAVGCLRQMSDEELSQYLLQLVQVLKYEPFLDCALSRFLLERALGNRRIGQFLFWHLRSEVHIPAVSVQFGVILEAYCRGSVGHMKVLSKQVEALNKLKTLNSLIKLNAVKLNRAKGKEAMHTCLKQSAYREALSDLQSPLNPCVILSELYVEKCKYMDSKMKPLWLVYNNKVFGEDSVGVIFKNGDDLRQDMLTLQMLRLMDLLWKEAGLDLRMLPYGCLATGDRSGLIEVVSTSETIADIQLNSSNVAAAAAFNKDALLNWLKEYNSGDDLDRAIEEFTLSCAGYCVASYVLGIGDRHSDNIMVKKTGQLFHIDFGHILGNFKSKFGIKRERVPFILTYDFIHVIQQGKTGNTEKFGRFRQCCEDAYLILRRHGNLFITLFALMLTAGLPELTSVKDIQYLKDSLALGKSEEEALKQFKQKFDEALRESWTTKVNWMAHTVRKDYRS

IC50 (BGC-823): 2.36 µM
IC50 (HCT-116 [2]): 0.081 µM
half-life at 1 µM [3]: > 2 h
IC50 [4]: 0.838 µM
IC50 [7]: 0.343 µM
half-life at 1 µM [10]: 4.62 min
half-life at 1 µM [12]: > 2 h
Retention_time [14]: 4.7 min
IC50 (HCT-116 [15]): 1.46 µM
Stability [17]: Stable
Papp B→A at 2 h, 10 µM [18]: 19.5 nm/s
IC50 [20]: 3.01 µM
IC50 (AGS): 0.924 µM
Structure (SMILES): COc1cc(CN(c2cc(-c3cc(OC4CCOCC4)c4ncnc(C)c4c3)cnc2OC)S(=O)(=O)c2ccc(F)cc2F)c([N+](=O)[O-])cc1OC
inhibition (HCT-116 [1]): Active
inhibition (HGC-27 [5]): Active
Activity (HCT-116 [6]): Active
Activity (Homo sapiens): Active
inhibition (HGC-27 [8]): inactive
IC50 (HGC-27 [9]): 0.0138 µM
IC50 (MG-63 [11]): 1.84 µM
inhibition (HGC-27 [13]): Active
IC50 (MG-63 [16]): 0.142 µM
Activity (HGC-27 [19]): inactive
Activity (HGC-27 [21]): Active
Activity (HCT-116 [22]): inactive
inhibition (HCT-116 [23]): inactive
